Data published in US20260193179A9 (priority 2018, published 2026).
Where a name gives a salt, the structure may show the parent alone. Read-outs that look alike come from different tables or passages of the source.

How the values were obtained:
human α-thrombin = human α-thrombin (Homo sapiens, UniProt P00734); assay: Enzymatic Assay for Thrombin (Boc-VPR-AMC substrate); format: biochemical
mMASP-2 = mMASP-2 (Mus musculus, UniProt Q91WP0); assay: Enzymatic assay for mMASP-2; format: biochemical
Lectin Pathway = Lectin Pathway Activation Assay in Human Serum (mannan-coated ELISA, C3c detection); format: biochemical; conditions: 1% human serum
Experimental: Microtiter ELISA plate was coated with mannan from Saccharomyces cerevisiae (Sigma-Aldrich, M7504) for overnight at 4° C. in coating buffer [15 mM Na2CO3, 35 mM NaHCO3]. Plate was blocked with 1% bovine serum albumin (BSA) (Sigma-Aldrich, A3294) in Tris-buffered Saline (TBS) [10 mM Tris-HCl, 140 mM NaCl] for 2 hours at room temperature. […] 100 μL of this mixture were then added to the plate and plate was incubated at 37° C. for up to an hour with gentle shaking, 200 rpm. After that, plate was washed thrice in wash buffer [TBS containing 5 mM CaCl2) and 0.05% Tween-20] and 100 μL of rabbit anti human C3c (Dako, A0062) diluted 1:5000 in wash buffer were added and incubated at 37° C. for 30 minutes.

MASP-2 (CCP1-CCP2-SP) [1] = molecular target: MASP-2 (CCP1-CCP2-SP) (Homo sapiens, UniProt O00187); assay: Enzymatic Assay for MASP-2 (fluorogenic substrate); format: biochemical
MASP-2 (CCP1-CCP2-SP) [2] = assay: Enzymatic Assay for MASP-2 (fluorogenic substrate); format: biochemical, human; conditions: selectivity for MASP-2 inhibition versus thrombin
[3] = human α-thrombin, Boc-VPR-AMC substrate

mMASP-2, sequence (Q91WP0 20-685): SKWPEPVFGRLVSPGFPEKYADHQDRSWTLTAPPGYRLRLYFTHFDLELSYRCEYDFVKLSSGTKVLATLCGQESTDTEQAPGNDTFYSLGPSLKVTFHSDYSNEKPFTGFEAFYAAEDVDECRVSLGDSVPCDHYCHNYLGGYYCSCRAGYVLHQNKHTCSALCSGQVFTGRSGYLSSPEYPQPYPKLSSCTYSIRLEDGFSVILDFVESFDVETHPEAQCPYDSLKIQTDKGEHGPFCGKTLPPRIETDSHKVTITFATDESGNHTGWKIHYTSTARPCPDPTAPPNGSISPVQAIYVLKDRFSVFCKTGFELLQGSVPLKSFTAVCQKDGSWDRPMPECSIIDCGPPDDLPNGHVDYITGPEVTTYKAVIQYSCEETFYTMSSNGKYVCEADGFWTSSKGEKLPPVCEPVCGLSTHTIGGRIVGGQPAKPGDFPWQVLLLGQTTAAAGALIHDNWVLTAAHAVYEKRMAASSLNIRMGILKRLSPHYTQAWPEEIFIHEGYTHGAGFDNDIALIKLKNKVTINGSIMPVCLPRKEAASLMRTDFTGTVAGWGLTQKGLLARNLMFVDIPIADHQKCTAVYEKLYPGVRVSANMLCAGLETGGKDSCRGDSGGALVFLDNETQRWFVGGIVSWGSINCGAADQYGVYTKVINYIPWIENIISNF
MASP-2 (CCP1-CCP2-SP) (Homo sapiens, UniProt O00187), sequence (O00187 445-686): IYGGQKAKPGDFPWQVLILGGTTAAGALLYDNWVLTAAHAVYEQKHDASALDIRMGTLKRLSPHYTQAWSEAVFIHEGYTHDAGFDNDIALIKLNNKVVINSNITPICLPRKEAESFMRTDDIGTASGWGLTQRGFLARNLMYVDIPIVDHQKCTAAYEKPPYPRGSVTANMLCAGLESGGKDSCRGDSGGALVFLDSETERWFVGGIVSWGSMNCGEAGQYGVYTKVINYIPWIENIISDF
MASP-2 (CCP1-CCP2-SP) (Homo sapiens, UniProt O00187), sequence (O00187 298-444): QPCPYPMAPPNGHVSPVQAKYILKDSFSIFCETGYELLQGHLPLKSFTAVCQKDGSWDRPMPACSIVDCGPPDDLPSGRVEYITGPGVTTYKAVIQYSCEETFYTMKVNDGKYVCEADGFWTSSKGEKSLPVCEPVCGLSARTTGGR

Row | Structure (SMILES) | Ki (mMASP-2) | Ki (MASP-2 (CCP1-CCP2-SP) [1]) | MASP-2 vs. thrombin selectivity (MASP-2 (CCP1-CCP2-SP) [2]) | IC50 (Lectin Pathway; mannan-coated plate) | further results
1 | Cc1nc(N)ccc1CNC(=O)C(C)NC(=O)[C@H]1C[C@H](c2cccc(-c3ccccc3)c2)CN1 (stereo in doubt) [compound 1359, (2R,4R)-4-([1,1′-Biphenyl]-3-yl)-N—((S)-1-(((6-amino-2-methylpyridin-3-yl)methyl)amino)-1-oxopropan-2-yl)pyrrolidine-2-carboxamide Di-trifluoroacetate salt] |  |  |  |  | Ki (human α-thrombin; [3]): > 25000 nM
2 | C[C@H](NC(=O)[C@H](N)CCc1ccccc1)C(=O)NCc1cccc(Cl)c1 [compound 1021] | > 25000 nM |  |  |  | Ki (human α-thrombin): > 25000 nM; IC50 (Lectin Pathway): > 50000 nM
3 | C[C@H](NC(=O)[C@H](N)CCc1ccccc1)C(=O)NCc1ccc2c(N)ncnc2c1 [compound 1060, (R)-2-Amino-N—((S)-1-(((4-aminoquinazolin-7-yl)methyl)amino)-1-oxopropan-2-yl)-4-phenylbutanamide Dihydrochloride] |  | < 2500 nM |  |  | 
4 | C[C@H](NC(=O)[C@H](N)CCc1cccc(Cl)c1)C(=O)NCc1ccc(C(=N)N)cc1 [compound 1081] | < 500 nM |  |  |  | IC50 (Lectin Pathway): 50 to 5000 nM
5 | C[C@H](NC(=O)[C@@H](CCc1ccccc1)NCc1ccc(C(=O)N2CCOCC2)cc1)C(=O)NCc1ccc(C(=N)N)cc1 [compound 1153] |  | < 500 nM |  |  | Ki (human α-thrombin): < 500 nM
6 | C[C@H](NC(=O)[C@H](N)CCc1ccccc1)C(=O)NCc1cc(Cl)ccc1C#N [compound 1313, Trifluoroacetate salt] | > 25000 nM | 2500 to 10000 nM |  |  | Ki (human α-thrombin; [3]): 10000 to 25000 nM
7 | C[C@H](OC(=O)[C@H](N)CCc1ccccc1)C(=O)NCc1ccc(C(=N)N)cc1 [compound 1315, (S)-1-((4-Carbamimidoylbenzyl)amino)-1-oxopropan-2-yl (R)-2-amino-4-phenylbutanoate Hydrochloride] |  | 500 to 2500 nM |  |  | Ki (human α-thrombin; [3]): 2500 to 10000 nM
8 | Cc1nc(N)ccc1CNC(=O)[C@H](C)NC(=O)[C@H]1C[C@H](Cc2ccc(-c3cccnc3)cc2)CN1 [compound 1357, (2R,4S)—N—((S)-1-(((6-Amino-2-methylpyridin-3-yl)methyl)amino)-1-oxopropan-2-yl)-4-(4-(pyridin-3-yl)benzyl)pyrrolidine-2-carboxamide Di-trifluoracetate salt] |  |  | **** (≥100-fold) | < 50 nM | 
9 | Cc1cc(Cl)cc(CNC(=O)[C@H](C)NC(=O)[C@H]2C[C@@H](c3ccccc3)CCN2)c1O [compound 1365, (2R,4S)—N—((S)-1-((5-Chloro-2-hydroxy-3-methylbenzyl)amino)-1-oxopropan-2-yl)-4-phenylpiperidine-2-carboxamide] |  |  | **** (≥100-fold) | < 50 nM | 
10 | Cc1nc(N)ccc1CNC(=O)[C@H](CCC(N)=O)NC(=O)[C@H](N)CCc1ccccc1 [compound 1376, (S)—N^1-((6-Amino-2-methylpyridin-3-yl)methyl)-2-((R)-2-amino-4-phenylbutanamido)pentanediamide] | > 25000 nM | 500 to 2500 nM |  |  | Ki (human α-thrombin; [3]): > 25000 nM
11 | Cc1nc(N)ccc1CNC(=O)[C@H](C)NC(=O)[C@H]1C[C@H](Cc2ccc(C3CCC3)cc2)CN1 [compound 1379, (2R,4S)—N—((S)-1-(((6-Amino-2-methylpyridin-3-yl)methyl)amino)-1-oxopropan-2-yl)-4-(4-cyclobutylbenzyl)pyrrolidine-2-carboxamide] |  |  | **** (≥100-fold) | 500 to 5000 nM | 
12 | C[C@H](NC(=O)[C@H]1C[C@H](Cc2ccc3ccccc3c2)CN1)C(=O)NCc1cc(Cl)ccc1-n1cnnn1 [compound 1385, (2R,4S)—N—((S)-1-((5-chloro-2-(1H-tetrazol-1-yl)benzyl)amino)-1-oxopropan-2-yl)-4-(naphthalen-2-ylmethyl)pyrrolidine-2-carboxamide] |  |  | ** (≥5.0 to <25-fold) | 50 to 500 nM | 
13 | Cc1nc(N)ccc1CNC(=O)[C@H](C)NC(=O)[C@H]1C[C@H](Cc2ccc(N3CCCC3=O)cc2)CN1 [compound 1391, (2R,4S)—N—((S)-1-(((6-Amino-2-methylpyridin-3-yl)methyl)amino)-1-oxopropan-2-yl)-4-(4-(2-oxopyrrolidin-1-yl)benzyl)pyrrolidine-2-carboxamide] |  |  | **** (≥100-fold) | 500 to 5000 nM | 
14 | C[C@H](NC(=O)[C@H]1C[C@H](Cc2ccccc2-c2ccccc2)CN1)C(=O)NCc1cnc2[nH]cc(Cl)c2c1 [compound 1393, (2R,4S)-4-([1,1′-Biphenyl]-2-ylmethyl)-N—((S)-1-(((3-chloro-1H-pyrrolo[2,3-b]pyridin-5-yl)methyl)amino)-1-oxopropan-2-yl)pyrrolidine-2-carboxamide] |  |  | * (≥1.0 to <5.0-fold) | 50 to 500 nM | 
15 | COc1cc(C[C@@H]2CN[C@@H](C(=O)N[C@@H](C)C(=O)NCc3cc(Cl)ccc3-n3cnnn3)C2)cc(OC)c1 [compound 1419, (2R,4S)—N—((S)-1-((5-Chloro-2-(1H-tetrazol-1-yl)benzyl)amino)-1-oxopropan-2-yl)-4-(3,5-dimethoxybenzyl)pyrrolidine-2-carboxamide] | < 500 nM |  | * (≥1.0 to <5.0-fold) |  | 
